In US9468602B2, “Pharmaceutical microemulsion for preventing supramolecular aggregation of amphiphilic molecules” (AZAD Pharma AG, priority 2009, dated 2016):

Test: Dynamic Laser Light Scattering (DLLS) analysis of supramolecular aggregation
Type: physicochemical
Experimental: Dynamic Laser Light Scattering (DLLS) was carried out on a Zetasizer Nano S from Malvern Instruments. DLLS is used for measuring the size of the microemulsion oil droplets or size of the supramolecular aggregates (% distribution function modality). Further characterization of supramolecular aggregation is given by the correlation coefficient function modality analysis of the Dynamic Laser Light Scattering.
In order to monitor the level of molecular aggregation in solution, Dynamic Laser Light Scattering (DLLS) has been used. Using this technique, it is not necessary to dilute the sample.

CC(=O)O[C@@]12CO[C@@H]1C[C@H](O)[C@@]1(C)C(=O)[C@H](O)C3=C(C)[C@@H](OC(=O)[C@H](O)[C@@H](NC(=O)OC(C)(C)C)c4ccccc4)C[C@@](O)([C@@H](OC(=O)c4ccccc4)[C@H]21)C3(C)C [docetaxel]
Aggregation by DLLS (correlation coefficient function) (50 μg/ml in water): presence of aggregates | Aggregation by DLLS (correlation coefficient function) (50 μg/ml in water plus triacetin 10 mg/ml): greatly reduces supramolecular aggregation | Aggregation by DLLS (correlation coefficient function) (50 μg/ml in water plus triacetin 30 mg/ml): totally eliminates the presence of molecular aggregates
